Values quoted from earlier work, collected in patent US11826586B2, “Method for dyeing keratin material, comprising the use of an organic C1-C6-alkoxy-silane and an alkalising agent” (Henkel AG & Co. KGaA, priority 2019, dated 2023).

Settings: 25° C.

solubility in water	solubility in water (in words)	SMILES
above 40 g/L	–	O=[N+]([O-])c1cc([N+](=O)[O-])c2ccc(S(=O)(=O)O)cc2c1O [Acid Yellow 9, 8-hydroxy-5,7-dinitro-2-naphthalenesulfonic acid]
–	highly soluble	O=C(O)C1=NN(c2ccc(S(=O)(=O)O)cc2)C(=O)C1N=Nc1ccc(S(=O)(=O)O)cc1 (stereo not shown) [Acid Yellow 23, 4,5-dihydro-5-oxo-1-(4-sulfophenyl)-4-((4-sulfophenyl)azo)-1H-pyrazole-3-carboxylic acid]
more than 20 % by weight	–	CCN(Cc1cccc(S(=O)(=O)O)c1)c1ccc(C(=C2C=CC(=[N+](CC)Cc3cccc(S(=O)(=O)O)c3)C=C2)c2ccccc2S(=O)(=O)[O-])cc1 [Acid Blue 9]

SMILES	solubility in water	solubility in water (in words)
O=S(=O)(O)c1ccc(N=Nc2c(O)ccc3ccccc23)cc1 [Acid Orange 7, 4-[(2-hydroxy-1-naphthyl)azo]benzene sulphonate]	more than 7 g/L	–
